Measured values: US12478620B2, “Cyano-substituted cyclic hydrazine derivative and application thereof” (E-nitiate Biopharmaceuticals (Hangzhou) Co., Ltd, priority 2019, dated 2025)

What was measured:
[1] = biological target: JAK1 (Homo sapiens, UniProt P23458); assay: JAK kinase inhibitor activity detection (ULight-JAK-1 substrate, Eu-labeled anti-phosphotyrosine antibody), JAK1; format: biochemical; conditions: JAK1 10 nM, substrate 50 nM, ATP 40 uM, 2 h room temperature
Protocol: (§1) Activity Detection of Small Molecule Inhibitors of JAK Kinase
(§2) • (1) kinase reaction buffer • Prepare the kinase reaction buffer with the following components: 50 mM HEPES, pH 7.5, 1 mM EGTA, 10 mM MgCl2, 2 mM DTT, 0.01% Tween20 • (2) 1× detection buffer • To prepare detection buffer, dilute 10× detection buffer to 1× with deionized water 9:1 • (3) 4× kinase solution • Dilute JAK to 4× final concentration by JAK reaction buffer (JAK1: 40 nM, JAK2: 0.5 nM) • (4) 4× substrate solution • Dilute ULight™-JAK-1 (Tyr1023) substrate to 200 nM by kinase reaction buffer (final concentration: 50 nM) • (5) 4×ATP solution • Dilute ATP to 4× final concentration by kinase reaction buffer (JAK1: 160 μM, JAK2: 40 μM) • (6) 4× compound testing solution • DMSO dissolves the testing compound into 10 mM stock solution, then prepared to the desired concentration with 3-fold serial dilution, and 10 concentration points were set for each compound. Besides, the final concentration range of the testing compound is: 10 μM-0.5 nM • (7) 4× enzyme reaction termination liquid • 1× test buffer dissolves EDTA to 40 mM (EDTA final concentration: 10 mM) • (8) 4× antibody detection solution • 1× test buffer dilutes Eu labeled antibody (anti-phosphotyrosine (PT66)) to 8 nM (antibody final concentration: 2 nM) 2. Experimental Process • (1) Successively add 2.5 μL 4×JAK solution, and 2.5 μL of diluted 4× test compound solution in different concentrations to the 384 microporous plate, and set 2 multi-wells for each concentration. Meanwhile, set enzyme solution blank control group and negative control group (DMSO group). • (2) Shake the 384-hole plate, mix enzymes and compounds, centrifuge at 1000 rpm for 1 minute, and incubate at room temperature for 60 minutes • (3) Add 2.5 μL of 4× substrate solution to a 384-hole plate and centrifuge at 1000 rpm for 1 min • (4) Add 2.5 μL of 4×ATP solution to the 384 multi-well plate and centrifuge at 1000 rpm for 1 minute to initiate the enzyme reaction. • (5) JAK1 reacts at room temperature for 2 h, and JAK2 react at room temperature for 1 h. • (6) The final concentrations of each group of the JAK1 reaction are: JAK1: 10 nM, substrate: 50 nM, ATP: 40 uM, and the final concentration range of the test compound is: 10 μM-0.5 nM • The final concentrations of each group of the JAK2 reaction are: JAK2: 0.125 nM, substrate: 50 nM, ATP: 10 μM, and the final concentration range of test compounds is: 10 μM-0.5 nM • (7) After the enzyme reaction, add 5 μL of 4× enzyme reaction stop solution to each well of the 384-well plate with 1000 rpm, centrifuge for 1 minute, and incubate at room temperature for 5 min. • (8) Add 5 μL of 4× detection antibody solution to each well of a 384-well plate (final concentration of detection antibody is 2 nM) with 1000 rpm, centrifuge for 1 minute, and incubate at room temperature for 1 h. • (10) After antibody incubation, measure the signal value of each well on an Envision plate reader 3. Data Analysis • (1) Taking the enzyme solution blank control group as 100% inhibition rate and the negative control group (DMSO group) as 0% inhibition rate, calculate the percentage inhibition rate corresponding to each concentration of the tested compounds • (2) In GraphPad Prism software, nonlinear regression analysis is performed on the concentration logarithm of the test compound and the corresponding percentage inhibition rate to obtain the half-inhibitory concentration (IC50) of the test compound.

[2] = biological target: JAK2 (Homo sapiens, UniProt O60674); assay: JAK kinase inhibitor activity detection (ULight-JAK-1 substrate, Eu-labeled anti-phosphotyrosine antibody), JAK2; format: biochemical; conditions: JAK2 0.125 nM, substrate 50 nM, ATP 10 μM, 1 h room temperature
JAK2, sequence (O60674 whole entry, species assumed): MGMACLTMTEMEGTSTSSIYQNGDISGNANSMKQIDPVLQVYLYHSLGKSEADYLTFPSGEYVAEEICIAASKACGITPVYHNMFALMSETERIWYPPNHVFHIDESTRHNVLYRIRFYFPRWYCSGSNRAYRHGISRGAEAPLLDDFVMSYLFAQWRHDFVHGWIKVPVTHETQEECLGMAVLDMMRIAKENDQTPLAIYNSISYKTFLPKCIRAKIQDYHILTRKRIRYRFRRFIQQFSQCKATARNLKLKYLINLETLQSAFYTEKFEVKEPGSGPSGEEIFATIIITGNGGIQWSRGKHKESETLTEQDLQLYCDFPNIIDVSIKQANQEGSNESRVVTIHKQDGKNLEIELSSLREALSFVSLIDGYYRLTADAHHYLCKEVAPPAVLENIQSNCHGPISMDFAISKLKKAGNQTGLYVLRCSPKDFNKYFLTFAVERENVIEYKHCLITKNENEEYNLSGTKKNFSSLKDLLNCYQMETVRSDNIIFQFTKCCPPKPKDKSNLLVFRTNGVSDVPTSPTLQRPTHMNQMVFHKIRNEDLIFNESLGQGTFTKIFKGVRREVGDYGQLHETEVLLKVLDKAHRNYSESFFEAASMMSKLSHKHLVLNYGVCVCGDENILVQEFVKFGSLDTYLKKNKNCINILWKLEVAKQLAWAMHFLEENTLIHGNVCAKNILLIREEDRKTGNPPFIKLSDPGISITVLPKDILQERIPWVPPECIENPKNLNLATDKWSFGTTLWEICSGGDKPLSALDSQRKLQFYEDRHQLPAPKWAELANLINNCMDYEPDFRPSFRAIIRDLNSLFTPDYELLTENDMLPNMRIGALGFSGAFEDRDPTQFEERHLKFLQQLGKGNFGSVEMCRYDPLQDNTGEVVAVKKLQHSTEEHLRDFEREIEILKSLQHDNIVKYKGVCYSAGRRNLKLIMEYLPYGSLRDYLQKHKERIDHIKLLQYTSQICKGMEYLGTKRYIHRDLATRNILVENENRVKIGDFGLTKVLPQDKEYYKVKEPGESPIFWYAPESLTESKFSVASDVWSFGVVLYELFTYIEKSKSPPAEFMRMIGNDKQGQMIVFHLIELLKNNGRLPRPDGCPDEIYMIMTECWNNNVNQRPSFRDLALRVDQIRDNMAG
Protocol: as §1, §2

JAK1, sequence (P23458 whole entry, species assumed): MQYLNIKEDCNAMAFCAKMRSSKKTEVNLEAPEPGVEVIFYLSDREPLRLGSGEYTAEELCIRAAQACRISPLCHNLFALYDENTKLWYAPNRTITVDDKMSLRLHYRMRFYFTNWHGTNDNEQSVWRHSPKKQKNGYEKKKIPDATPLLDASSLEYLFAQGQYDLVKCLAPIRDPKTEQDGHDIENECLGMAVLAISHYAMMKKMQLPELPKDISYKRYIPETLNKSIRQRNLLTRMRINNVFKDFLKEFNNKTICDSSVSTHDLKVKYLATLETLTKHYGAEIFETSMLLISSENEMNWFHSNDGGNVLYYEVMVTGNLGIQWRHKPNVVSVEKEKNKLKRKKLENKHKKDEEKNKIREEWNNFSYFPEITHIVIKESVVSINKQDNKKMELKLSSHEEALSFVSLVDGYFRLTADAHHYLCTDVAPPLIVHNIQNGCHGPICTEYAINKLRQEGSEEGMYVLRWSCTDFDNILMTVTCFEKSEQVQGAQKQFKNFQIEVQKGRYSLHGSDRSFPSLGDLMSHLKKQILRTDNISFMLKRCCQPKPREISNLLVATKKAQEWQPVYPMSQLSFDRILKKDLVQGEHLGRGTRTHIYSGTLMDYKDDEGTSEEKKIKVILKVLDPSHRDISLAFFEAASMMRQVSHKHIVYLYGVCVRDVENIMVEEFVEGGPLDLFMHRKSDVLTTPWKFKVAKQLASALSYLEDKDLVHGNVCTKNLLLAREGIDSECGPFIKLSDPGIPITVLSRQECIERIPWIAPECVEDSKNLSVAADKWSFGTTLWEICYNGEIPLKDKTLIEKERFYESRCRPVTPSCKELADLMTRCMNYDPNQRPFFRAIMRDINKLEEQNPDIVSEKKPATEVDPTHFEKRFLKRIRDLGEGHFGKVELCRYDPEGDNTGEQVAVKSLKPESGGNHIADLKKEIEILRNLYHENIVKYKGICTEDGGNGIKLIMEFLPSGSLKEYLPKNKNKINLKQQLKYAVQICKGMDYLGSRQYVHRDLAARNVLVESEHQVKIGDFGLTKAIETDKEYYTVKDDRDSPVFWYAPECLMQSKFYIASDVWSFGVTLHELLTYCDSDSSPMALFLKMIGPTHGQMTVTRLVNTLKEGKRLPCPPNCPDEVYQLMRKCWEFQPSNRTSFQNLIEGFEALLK

`CC1CN(C(=O)CC#N)CN1n1cnc2cnc3[nH]ccc3c21` (stereo not shown) [Example 30, 3-(4-methyl-3-(imidazo[4,5-d]pyrrolo[2,3-b]pyridine-1(6H)-yl)imidazoline-1-yl)-3-Oxopropionitrile] showed an IC50 [1] of 2.8 nM and an IC50 [2] of 28.1 nM.
For `N#CCC(=O)N1CCN(n2cnc3cnc4[nH]ccc4c32)C1` [Example 31, 3-(3-(imidazo[4,5-d]pyrrolo[2,3-b]pyridine-1(6H)-yl)imidazoline-1-yl)-3-oxopropionitrile], the IC50 [1] was 6.9 nM and the IC50 [2] was 71.8 nM.
Work on `CC[C@@H]1CN(C(=O)CC#N)CN1n1cnc2cnc3[nH]ccc3c21` [Example 32, (R)-3-(4-ethyl-3-(imidazo[4,5-d]pyrrolo[2,3-b]pyridine-1(6H)-yl)imidazoline-1-yl)-3-oxopropionitrile] yielded an IC50 [1] of 6.8 nM and an IC50 [2] of 15.3 nM.
Compound `N#CCC(=O)NC1CCN(n2cnc3cnc4[nH]ccc4c32)C1` (stereo not shown) [Example 33, 2-cyano-N-(1-(imidazo[4,5-d]pyrrolo[2,3-b]pyridine-1(6H)-yl)pyrrolidine-3-yl)acetamide] has an IC50 [1] of 11.2 nM and an IC50 [2] of 29.1 nM.
With `N#CCNC1CCN(n2cnc3cnc4[nH]ccc4c32)C1` (stereo not shown) [Example 34, 2-((1-(imidazo[4,5-d]pyrrolo[2,3-b]pyridine-1(6H)-yl)pyrrolidine-3-yl)amino)acetonitrile] the IC50 [1] was 73.8 nM and the IC50 [2] was 51.7 nM.
Compound `CC[C@@H]1C[C@H](C#N)CN1n1cnc2cnc3[nH]ccc3c21` [Example 35, (3S,5R)-5-ethyl-1-(imidazo[4,5-d]pyrrole[2,3-b]pyridine(6H)-yl)pyrrolidine-3-carbonitrile] has an IC50 [1] of 9.5 nM and an IC50 [2] of 61.3 nM.
`CC[C@@H]1C[C@@H](CC#N)CN1n1cnc2cnc3[nH]ccc3c21` [Example 36-1, 2-((3S,5R)-5-ethyl-1-(imidazo[4,5-d]pyrrolo[2,3-b]pyridine-1(6H)-yl)pyrrolidin-3-yl) acetonitrile] showed an IC50 [1] of 6.8 nM and an IC50 [2] of 23.5 nM.
With `CC[C@@H]1C[C@H](CC#N)CN1n1cnc2cnc3[nH]ccc3c21` [Example 36-2, 2-((3R,5R)-5-ethyl-1-(imidazo[4,5-d]pyrrolo[2,3-b]pyridine-1(6H)-yl)pyrrolidin-3-yl) acetonitrile] the IC50 [1] was 43.6 nM and the IC50 [2] was 127 nM.
